Reference: patent US20080226624A1, “Combined treatment of cancer by urokinase inhibition and a cytostatic anti-cancer agent for enhancing the anti-metastatic effect” (priority 2007, published 2008)

Key:
uPA = uPA (Homo sapiens, UniProt P00749); conditions: L-confirmation; cited from earlier work
tumor cell invasion = conditions: cited from earlier work
plasmin = plasmin (Homo sapiens, UniProt P00747); conditions: L-confirmation; cited from earlier work
BN472 rat mammary tumors = test system: BN472 rat mammary tumors
Procedure: Small tumor cubes (2×2×2 mm) were prepared from a tumor grown in a donor rat and implanted orthotopically under the fat pad of the mammary gland.
The effects of treatments on body weight and tumor load were evaluated twice weekly. The final evaluation was done at the end of the therapy period after all rats had been sacrificed. Graphical evaluations of the endpoints considered, i.e., tumor size and weight, axillary lymph-node weights, the number of macroscopic lung foci, and the weights of the thymus, uterus, spleen and liver, are depicted in FIGS. 3, 3a, 3b, 3c, 3d and 3e.

[1] = irinotecan mono-therapy, both doses (2 and 6 mg/kg daily i.p.)

Chain of plasmin (P00747 581-810 limits assumed, species assumed): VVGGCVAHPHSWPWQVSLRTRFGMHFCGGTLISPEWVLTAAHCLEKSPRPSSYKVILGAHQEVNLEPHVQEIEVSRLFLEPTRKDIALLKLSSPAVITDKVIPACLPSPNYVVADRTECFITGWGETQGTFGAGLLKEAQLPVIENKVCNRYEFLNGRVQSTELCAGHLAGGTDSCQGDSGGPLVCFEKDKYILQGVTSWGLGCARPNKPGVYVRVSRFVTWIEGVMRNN
Chain of plasmin (P00747 97-580 partner limits assumed, species assumed): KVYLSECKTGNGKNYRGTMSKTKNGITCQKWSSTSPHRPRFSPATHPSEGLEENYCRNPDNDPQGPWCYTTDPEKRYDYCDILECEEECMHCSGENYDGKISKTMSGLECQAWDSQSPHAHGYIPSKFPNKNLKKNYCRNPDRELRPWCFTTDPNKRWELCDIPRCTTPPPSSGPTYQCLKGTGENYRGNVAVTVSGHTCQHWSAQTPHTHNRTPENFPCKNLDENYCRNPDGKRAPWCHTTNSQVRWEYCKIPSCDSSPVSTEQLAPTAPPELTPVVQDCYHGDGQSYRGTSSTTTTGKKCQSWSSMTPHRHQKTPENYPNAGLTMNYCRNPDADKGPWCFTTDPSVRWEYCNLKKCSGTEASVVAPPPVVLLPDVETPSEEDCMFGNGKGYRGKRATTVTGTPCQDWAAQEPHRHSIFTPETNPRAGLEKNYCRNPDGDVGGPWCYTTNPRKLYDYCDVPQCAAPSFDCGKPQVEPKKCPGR

| SMILES | Ki values, inhibition of uPA (uPA) | tumor cell invasion in vitro (tumor cell invasion) | Ki values, inhibition of plasmin (plasmin) | tolerability (daily observations during the treatment period) (BN472 rat mammary tumors; WX-671 0.3 mg/kg daily p.o., irinotecan 2 or 6 mg/kg daily i.p.) | axillary lymph-nodes weight (BN472 rat mammary tumors; [1]) | number of lung foci (BN472 rat mammary tumors; [1]) | tumor growth (BN472 rat mammary tumors; irinotecan mono-therapy, daily i.p.) |
| --- | --- | --- | --- | --- | --- | --- | --- |
| CCOC(=O)N1CCN(C(=O)[C@H](Cc2cccc(C(=N)N)c2)NS(=O)(=O)c2c(C(C)C)cc(C(C)C)cc2C(C)C)CC1 [WX-UK1, N[alpha]-(2,4,6-triisopropylphenylsulfonyl)-3-amidino-(L)-phenylalanine 4-ethoxycarbonylpiperazide] | low- or sub-micromoles range | suppress tumor cell invasion in vitro | low- or sub-micromoles range |  |  |  |  |
| CCc1c2c(nc3ccc(OC(=O)N4CCC(N5CCCCC5)CC4)cc13)-c1cc3c(c(=O)n1C2)COC(=O)[C@]3(O)CC [irinotecan] |  |  |  | generally well tolerated | significantly inhibited | significantly inhibited | inhibition of tumor growth |
